The text below walks through data of PubChem BioAssay (NCI).

Structures are written as SMILES.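 Where inhibition never reached the appropriate level, the endpoint shown equals the highest concentration tested. Otherwise, values were interpolated linearly from a five-concentration, 48-hour dose response in 96-well plates. GI50 marks 50% less growth. TGI denotes the concentration required for complete inhibition of growth.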

Some test systems named below: COLO 205 colon; CCRF-CEM leukemia; SK-MEL-5 melanoma; HCC-2998 colon; SNB-19 CNS; OVCAR-4 ovarian; RPMI-8226 leukemia; TK-10 renal; MDA-MB-435; ACHN renal.
Common to all, as to experiment: NCI-60 cell line screen, 48 h

With `CN1CCN(c2ccc3nc4c(nc3c2C(F)(F)F)C(=O)c2ncccc2C4=O)CC1`, the GI50 is 1.45 µM in the test with COLO 205 colon; 2.44 µM with CCRF-CEM leukemia; 1.43 µM with SK-MEL-5 melanoma; 1.21 µM with HCC-2998 colon; 1.66 µM in the test with SNB-19 CNS; 1.07 µM in the test on OVCAR-4 ovarian. The GI50 in the test on RPMI-8226 leukemia is 2.37 µM; in the test with TK-10 renal, 2.21 µM; in the test on MDA-MB-435, 0.178 µM. Moreover, the TGI with COLO 205 colon came out at 3.29 µM; with CCRF-CEM leukemia, 7.32 µM; with SK-MEL-5 melanoma it was 2.76 µM; with HCC-2998 colon, 2.63 µM; with SNB-19 CNS, 5.7 µM; with OVCAR-4 ovarian, 2.26 µM. The TGI was found to be 7.59 µM in the test on RPMI-8226 leukemia, 5.3 µM with TK-10 renal and 0.344 µM in the test with MDA-MB-435.

`COc1cccc(Nc2nccc(Nc3ccc4[nH]ncc4c3)n2)c1`: the GI50 in the test on COLO 205 colon is 1.57 µM; in the test on CCRF-CEM leukemia it was 0.901 µM; in the test with SK-MEL-5 melanoma it was 1.22 µM; in the test on HCC-2998 colon, 1.79 µM; in the test with OVCAR-4 ovarian it was 1.46 µM; in the test on RPMI-8226 leukemia, 1.36 µM. Moreover, the GI50 with TK-10 renal was 1.42 µM; in the test on MDA-MB-435, 1.49 µM. The TGI in the test with COLO 205 colon was 3.26 µM; in the test with CCRF-CEM leukemia, 4.56 µM; with SK-MEL-5 melanoma it was 2.47 µM; with HCC-2998 colon, 3.36 µM; with OVCAR-4 ovarian, 4.03 µM; with RPMI-8226 leukemia it was 4.19 µM. The figures for the TGI in the test on TK-10 renal and with MDA-MB-435 were 2.82 µM and 3.18 µM, respectively.

Turning to `Cc1c(N2C(=O)/C(=C\c3ccc(N(C)C)cc3)N=C2c2ccccc2)c(=O)n(-c2ccccc2)n1C`, the GI50 with COLO 205 colon is 43.7 µM; with SK-MEL-5 melanoma, 36.3 µM; in the test on ACHN renal it was over 100 µM; in the test on HCC-2998 colon, over 100 µM; in the test on SNB-19 CNS, over 100 µM; with OVCAR-4 ovarian, 39.9 µM. For the same molecule, the figures for the GI50 with RPMI-8226 leukemia, in the test with TK-10 renal and in the test on MDA-MB-435 were 25.6 µM, over 100 µM and over 100 µM, respectively. Moreover, the TGI in the test with COLO 205 colon, with SK-MEL-5 melanoma, in the test with ACHN renal, in the test on HCC-2998 colon, in the test with SNB-19 CNS and in the test with OVCAR-4 ovarian was over 100 µM each time. The values for the TGI in the test with RPMI-8226 leukemia, with TK-10 renal and in the test on MDA-MB-435 were over 92 µM, over 100 µM and over 100 µM, respectively.

Turning to `NC(=O)NC(=O)C1CCCCC1C(=O)O` (stereo not drawn), the TGI in the test with COLO 205 colon, with CCRF-CEM leukemia, in the test with SK-MEL-5 melanoma, with ACHN renal, in the test with SNB-19 CNS and in the test with OVCAR-4 ovarian was over 100 µM throughout. In addition, the TGI in the test on RPMI-8226 leukemia, with TK-10 renal and in the test on MDA-MB-435 was over 100 µM in each case.

With `Cc1cc2nc3c4ccccc4n(CCN(C)C)c3nc2cc1C`, the GI50 was 1.29 µM in the test on COLO 205 colon; 1.99 µM in the test with CCRF-CEM leukemia; 1.7 µM in the test on SK-MEL-5 melanoma; 0.555 µM in the test on ACHN renal; 1.47 µM in the test with HCC-2998 colon; 2.33 µM in the test on SNB-19 CNS. For the same molecule, the GI50 was 2.55 µM with OVCAR-4 ovarian, 2.98 µM with TK-10 renal and 1.61 µM in the test with MDA-MB-435. The TGI in the test with COLO 205 colon was determined as 4.49 µM; in the test on CCRF-CEM leukemia it was 13.6 µM; in the test with SK-MEL-5 melanoma, 3.19 µM; in the test on ACHN renal, 11.3 µM; in the test on HCC-2998 colon it was 4.13 µM; in the test with SNB-19 CNS, 12.3 µM. Besides, the TGI in the test with OVCAR-4 ovarian came to 8.94 µM; in the test on TK-10 renal, 14.1 µM; in the test on MDA-MB-435, 3.47 µM.

With `O=C1c2ccccc2C(=O)c2sc(Nc3ccc(Cl)c(Cl)c3)nc21`, the TGI came out at 15.4 µM in the test on COLO 205 colon; 5.15 µM in the test with CCRF-CEM leukemia; 5.83 µM in the test on SK-MEL-5 melanoma; 3.17 µM with ACHN renal; 29.3 µM with HCC-2998 colon; 32.9 µM in the test with SNB-19 CNS. Also, the values for the TGI in the test with OVCAR-4 ovarian, with RPMI-8226 leukemia and in the test with TK-10 renal were 5.69 µM, 5 µM and 21.8 µM, respectively.

With `CP(C)C.[Ag][I]`, the TGI in the test on COLO 205 colon is over 100 µM; in the test on CCRF-CEM leukemia, over 100 µM; with SK-MEL-5 melanoma it was 46.4 µM; with ACHN renal, over 100 µM; in the test with HCC-2998 colon, over 100 µM; with SNB-19 CNS, over 100 µM. Moreover, the results for the TGI in the test with OVCAR-4 ovarian, in the test on RPMI-8226 leukemia and in the test on TK-10 renal were 69.5 µM, over 100 µM and over 100 µM, respectively.

For the molecule `N#CC(C#N)=Cc1ccc(-c2ccc(-c3nc4ccccc4o3)cc2)o1`, the GI50 is 40 µM with COLO 205 colon; 11.6 µM with CCRF-CEM leukemia; 13.1 µM in the test on SK-MEL-5 melanoma; 50.8 µM in the test on ACHN renal; 47.1 µM in the test on HCC-2998 colon; over 100 µM with SNB-19 CNS. Further, the GI50 in the test on OVCAR-4 ovarian is over 100 µM; in the test with TK-10 renal, 23.7 µM; in the test on MDA-MB-435, 57 µM. In addition, the TGI in the test with COLO 205 colon was over 100 µM; in the test on CCRF-CEM leukemia, over 100 µM; in the test with SK-MEL-5 melanoma it was 62.5 µM; in the test with ACHN renal it was over 100 µM; in the test on HCC-2998 colon, 96.4 µM; with SNB-19 CNS it was over 100 µM. In addition, the TGI was over 100 µM in the test on OVCAR-4 ovarian, 77.3 µM with TK-10 renal and over 100 µM in the test on MDA-MB-435.

Take `CCC[CH2][Sn]1([CH2]CCC)[O]C(=O)c2cc(C)ccc2[O]1`: the GI50 in the test with COLO 205 colon is 0.46 µM; in the test on CCRF-CEM leukemia, 0.167 µM; in the test on SK-MEL-5 melanoma, 0.854 µM; in the test on ACHN renal, 0.457 µM; in the test on HCC-2998 colon it was 0.67 µM; with SNB-19 CNS it was 0.7 µM. Further, the GI50 in the test with OVCAR-4 ovarian was 0.707 µM; with RPMI-8226 leukemia, 0.193 µM; in the test on TK-10 renal it was 0.385 µM. Besides, the TGI is 1.5 µM with COLO 205 colon; 0.561 µM in the test with CCRF-CEM leukemia; 2.11 µM in the test on SK-MEL-5 melanoma; 1.59 µM in the test on ACHN renal; 1.98 µM in the test with HCC-2998 colon; 1.93 µM in the test with SNB-19 CNS. For the same molecule, the TGI with OVCAR-4 ovarian is 2.06 µM; with RPMI-8226 leukemia it was 0.599 µM; with TK-10 renal, 1.18 µM.
